Experimental data taken from paper PMC6545003, “Cytotoxic and cell cycle arrest properties of two steroidal alkaloids isolated from Holarrhena floribunda (G. Don) T. Durand & Schinz leaves” (BMC Complementary and Alternative Medicine, 2019).
Like-named read-outs stand apart in the source and are kept apart here.

Tests used:
HeLa cells [1] = experiment: MTT reduction assay; assay type: cell-based, human; conditions: for Selectivity index: HeLa versus non-cancerous KMST-6; for IC50: HeLa
Method: (§3) Viable cells were seeded at a density of 5 x10^4 cells/ml (100 μl/well) in 96-well plates and incubated in a humidified atmosphere of 5% CO2 and 95% air at 37°C for 24 h to form a cell monolayer. After 24 h, the cell culture medium was aspirated and 100 μl fresh medium containing varying concentrations of test compounds in log10 doses were added to the cells and the 96-well plates incubated for a further 24 h [16, 17].
(§4) After the 24 h treatments, 20 μl of 5 mg/ml MTT (prepared in PBS) was added to each well and the 96-well plates incubated for 3 h at 37°C in a 5% CO2 atmosphere. The supernatant was aspirated and 150 μl of isopropanol added to each well after which the plate was gently shaken for 15 min to solubilize the formazan crystals and the absorbance was measured at 560 nm using a Glomax Multi Detection System (Promega, USA). The percentage inhibition of cell proliferation was calculated using the formula below and IC50 values computed by non-linear regression analysis of log dose-response sigmoidal curves using GraphPad Prism version 6.05 for Windows (GraphPad Software, La Jolla California USA, www.graphpad.com). %Inhibition of Proliferation=100‐TestOD/UntreatedODx100%

HT-29 cells [2] = experiment: MTT reduction assay; assay type: cell-based, human; conditions: for Selectivity index: HT-29 versus non-cancerous KMST-6
Method: as §3, §4

MCF-7 cells [3] = experiment: MTT reduction assay; assay type: cell-based, human; conditions: for Selectivity index: MCF-7 versus non-cancerous KMST-6
Method: as §3, §4

[4] = system: KMST-6 non-cancerous fibroblast cells; experiment: MTT reduction assay; assay type: cell-based, human
Method: as §3, §4

HeLa cells [5] = experiment: Cell cycle analysis, PI flow cytometry; assay type: cell-based, human; conditions: IC50 concentration, 24 h
Method: (§1) Cells were seeded at a density of 2 × 10^5 cells/well in 6-well plates and incubated for 24 h at 37 °C in a CO2 incubator to form a monolayer. The cells were treated for 12 and 24 h with the isolated compounds at concentrations equivalent to the IC50 concentrations (as determined by the MTT reduction assay). After treatment, the cells were detached with trypsin, washed in PBS and the cell pellet was resuspended in 1 ml of 1% paraformaldehyde and placed on ice for 30 min. Ethanol (70%, v/v) was slowly added to the cells while the sample was vortexed to reduce cell clumping. The cells were stored at − 20 °C for 48 h, after which the cells were recovered by centrifugation at 4000 rpm for 10 min. The cell pellets were washed twice in PBS and then resuspended in 1 ml PBS containing 100 μg/ml RNase and 40 μg/ml propidium iodide. Cell cycle phase distribution was determined using a FACS Calibur Flow Cytometer (BD Biosciences Franklin Lakes, NJ, USA). The DNA content of 50,000 events was determined by ModFit software (Verity Software House, Topsham, ME), which provided histograms to evaluate the cell cycle distribution.

MCF-7 cells [6] = experiment: Cell cycle analysis, PI flow cytometry; assay type: cell-based, human; conditions: MCF-7, IC50 concentration
Method: as §1

HT-29 cells [7] = experiment: Cell cycle analysis, PI flow cytometry; assay type: cell-based, human; conditions: HT-29, IC50 concentration, 12 and 24 h
Method: as §1

HeLa cells [8] = experiment: BrdU incorporation assay (chemiluminescent ELISA); assay type: cell-based, human; conditions: IC50 concentration
Method: (§2) Cells were seeded at a density of 5 × 10^4 cells/well in black-walled 96-well microtiter plates and incubated for 24 h at 37 °C in a CO2 incubator to form a monolayer. The cells were treated for 12, 24 and 48 h with the isolated compounds at concentrations equivalent to the IC50 concentrations (as determined by the MTT reduction assay). Cell proliferation was determined using the ELISA-BrdU (5-bromo-2′-deoxyuridine) chemiluminescence assay kit (Roche, Germany), according to the manufacturer’s instruction, and expressed as the percentage DNA synthesis relative to the untreated control.

MCF-7 cells [9] = experiment: BrdU incorporation assay (chemiluminescent ELISA); assay type: cell-based, human; conditions: MCF-7, IC50 concentration
Method: as §2

HT-29 cells [10] = experiment: BrdU incorporation assay (chemiluminescent ELISA); assay type: cell-based, human; conditions: HT-29, IC50 concentration
Method: as §2

[11] = design: method as in doi:10.1135/cccc20041506; conditions: at a neuro-active concentration; cited from earlier work
[12] = Homo sapiens, MTT, 24 h treatment, read-out: IC50
[13] = Homo sapiens, HT-29, MTT, 24 h treatment, read-out: IC50
[14] = Homo sapiens, MCF7, MCF-7, MTT, 24 h treatment, read-out: IC50
[15] = Homo sapiens, Fibroblast, KMST-6, MTT, 24 h treatment, read-out: IC50

Row | SMILES | Selectivity index (HeLa cells [1]) | Selectivity index (HT-29 cells [2]) | Selectivity index (MCF-7 cells [3]) | IC50 (HeLa cells [1]; [12]) | Cell population in G2/M-phase (MCF-7 cells [6]; 12 h) | Cell population in G2/M-phase (MCF-7 cells [6]; 24 h) | Cell population in G2/M phase (HT-29 cells [7]) | IC50 (HT-29 cells [2]; [13]) | IC50 (MCF-7 cells [3]; [14]) | Change in DNA synthesis between 12 and 24 h (HT-29 cells [10]) | IC50 [4, 15] | further results
1 | N.N.[Cl][Pt][Cl] [Cisplatin] | 2.11 | 0.87 | 0.58 |  |  |  |  |  |  |  |  | IC50 (HeLa cells [1]; MTT, 24 h treatment, read-out: IC50): 2.91 µM; IC50 (HT-29 cells [2]; HT-29, MTT, 24 h treatment, read-out: IC50): 7.07 µM; IC50 (MCF-7 cells [3]; MCF-7, MTT, 24 h treatment, read-out: IC50): 10.6 µM; IC50 ([4]; KMST-6, MTT, 24 h treatment, read-out: IC50): 6.14 µM
2 | CC(=O)[C@H]1CC[C@H]2[C@@H]3CC=C4C[C@H](N)CC[C@]4(C)[C@H]3CC[C@]12C [Compound 1, holamine] | 2.00 | 3.82 |  | 51.4 µM | significant increase | not significant | significant increase | 31.1 µM | 42.8 µM | significant reduction | 103 µM | Cell population in G2/M-phase (HeLa cells [5]): significant decrease; Selectivity index (HT-29 cells [2]; listed as C1): 3.31; Change in DNA synthesis between 24 and 48 h (HeLa cells [8]): significant reduction; Change in DNA synthesis between 12 and 24 h (MCF-7 cells [9]): significant reduction
3 | CC(=O)[C@H]1CC[C@H]2[C@@H]3CC[C@H]4C[C@H](N)CC[C@]4(C)[C@H]3CC[C@]12C [Compound 2, funtumine] |  | 3.31 | 1.85 |  | significant increase | significant increase | significant increase |  |  | significant reduction |  | IC50 (HeLa cells [1]; Homo sapiens, 24 h): 46.2 µM; Selectivity index (HT-29 cells [2]; listed as C2): 3.82; IC50 (HT-29 cells [2]; Homo sapiens, HT-29, 24 h): 22.4 µM; IC50 (MCF-7 cells [3]; Homo sapiens, MCF7, 24 h): 52.7 µM; Change in DNA synthesis between 12 and 24 h (HeLa cells [8]): significant reductions; Change in DNA synthesis between 24 and 48 h (MCF-7 cells [9]): significantly (P < 0.05) reduced; Change in DNA synthesis between 24 and 48 h (HT-29 cells [10]): significant reduction; Cytotoxicity [11]: no cytotoxicity; IC50 ([4]; Homo sapiens, Fibroblast, 24 h): 85.5 µM
4 | COc1cccc2c1C(=O)c1c(O)c3c(c(O)c1C2=O)C[C@@](O)(C(=O)CO)C[C@@H]3O[C@H]1C[C@H](N)[C@H](O)[C@H](C)O1 [Dox, Doxorubicin] | 1.31 | 0.27 | 0.57 | 3.57 µM |  |  |  | 17.4 µM | 8.2 µM |  | 4.68 µM | 
